In US8617872B2, “Compositions for culturing spirochetes” (priority 2000, dated 2013):

Tested on: A. lwoffii
Assay: Antibiotic susceptibility test (MICROSCAN or disc diffusion), control organism A. lwoffii
Format: cell-based
Details: total isolates 1

Compound	Antibiotic Susceptibility Test Results, A. lwoffii [%]
C[C@H]1[C@H](NC(=O)/C(=N\OC(C)(C)C(=O)O)c2csc(N)n2)C(=O)N1S(=O)(=O)O [Aztreonam]	100
C[C@@H](O)[C@H]1C(=O)N2C(C(=O)O)=C(S[C@@H]3CN[C@H](C(=O)N(C)C)C3)[C@H](C)[C@H]12 [Meropenem]	100
Gentamicin	100

Tested on: Leptospira
Assay: Susceptibility testing of Leptospira isolated from a patient with symptoms of multiple sclerosis
Format: cell-based
Details: Leptospira culture from serum of multiple sclerosis patient
Description: This example describes the preparation of a pellet used for antimicrobial susceptibility testing of a culture sample. […] In order to form pellet, an aliquot of this culture sample is placed in a microcentrifuge tube along with 10% SDS solution, and centrifuged at 14,000 g to disrupt the spirochetes and maximize the number of available eptiopic sites. […] This inoculated alternative growth medium was then allowed to incubate in the closed micro centrifuge tube until a distinctive pellet was observed (typically 7-14 days).
MICROSCAN antibiotic susceptibility microtiter plates were then inoculated with (e.g., 110 μl of) inoculum and allowed to incubate at 35° C. for 16-20 hours. The microtiter plates were then scanned for growth and respective sensitivity reaction (both the control well and the growth well).

Compound	Antibiotic Susceptibility Results, SERUM
C[C@H]1[C@H](NC(=O)/C(=N\OC(C)(C)C(=O)O)c2csc(N)n2)C(=O)N1S(=O)(=O)O [Aztreonam]	Resistant
C[C@@H](O)[C@H]1C(=O)N2C(C(=O)O)=C(S[C@@H]3CN[C@H](C(=O)N(C)C)C3)[C@H](C)[C@H]12 [Meropenem]	Resistant
Gentamicin	Resistant

Same assay, conditions: Leptospira culture from urine of multiple sclerosis patient

Compound	Antibiotic Susceptibility Results, URINE
C[C@H]1[C@H](NC(=O)/C(=N\OC(C)(C)C(=O)O)c2csc(N)n2)C(=O)N1S(=O)(=O)O [Aztreonam]	Resistant
C[C@@H](O)[C@H]1C(=O)N2C(C(=O)O)=C(S[C@@H]3CN[C@H](C(=O)N(C)C)C3)[C@H](C)[C@H]12 [Meropenem]	Resistant
Gentamicin	Resistant

Tested on: Pseudomonas
Assay: Antibiotic susceptibility test (MICROSCAN or disc diffusion), control organism Pseudomonas
Format: cell-based
Details: total isolates 1

Compound	Antibiotic Susceptibility Test Results, Pseudomonas [%]
C[C@H]1[C@H](NC(=O)/C(=N\OC(C)(C)C(=O)O)c2csc(N)n2)C(=O)N1S(=O)(=O)O [Aztreonam]	100
C[C@@H](O)[C@H]1C(=O)N2C(C(=O)O)=C(S[C@@H]3CN[C@H](C(=O)N(C)C)C3)[C@H](C)[C@H]12 [Meropenem]	100
Gentamicin	100

Tested on: Borrelia
Assay: Antibiotic susceptibility test (MICROSCAN or disc diffusion) of patient samples positive for Borrelia
Format: cell-based
Details: total isolates 519
From the text: (§1) This example describes the preparation of a pellet used for antimicrobial susceptibility testing of a culture sample. The procedure begins with a culture (e.g., prepared in the manner described in Example 2), where serum from a patient is inoculated in GSI-1 media and allowed to grow. In order to form pellet, an aliquot of this culture sample is placed in a microcentrifuge tube along with 10% SDS solution, and centrifuged at 14,000 g to disrupt the spirochetes and maximize the number of available eptiopic sites. The disrupted spirochetes were then cultured in an alternative growth medium made up of one part GSI-1 medium, one part 6.5% lactalbumin hydrolysate, one part 2% brain heart infusion, one part 10% pluronic fluid, and one part of the isolated (disrupted) spirochetes. This inoculated alternative growth medium was then allowed to incubate in the closed micro centrifuge tube until a distinctive pellet was observed (typically 7-14 days).
(§2) Following the observation of pellet formation, the tube was vortexed and incubated at 35° C. until a MacFarlane standard of between 8 to 12% turbidity was achieved. MICROSCAN antibiotic susceptibility microtiter plates were then inoculated with (e.g., 110 μl of) inoculum and allowed to incubate at 35° C. for 16-20 hours. The microtiter plates were then scanned for growth and respective sensitivity reaction (both the control well and the growth well). Table 2 below lists the various antimicrobials tested with this sample and whether growth of the organism was inhibited (susceptible) or whether the growth of the organism was not inhibited (resistant).
(§3) This Example describes the results for susceptibility tests that were performed on a large number of patient samples positive for either Borrelia or Leptospira. […] The results presented in Table 3 reveal the varied response of different types of spirochetes to different antibiotics.

Compound	Antibiotic Susceptibility Test Results, Borrelia [%]
C[C@H]1[C@H](NC(=O)/C(=N\OC(C)(C)C(=O)O)c2csc(N)n2)C(=O)N1S(=O)(=O)O [Aztreonam]	11
C[C@@H](O)[C@H]1C(=O)N2C(C(=O)O)=C(S[C@@H]3CN[C@H](C(=O)N(C)C)C3)[C@H](C)[C@H]12 [Meropenem]	82
Gentamicin	89

Tested on: E. coli
Assay: Antibiotic susceptibility test (MICROSCAN or disc diffusion), control organism E. coli
Format: cell-based
Details: total isolates 1

Compound	Antibiotic Susceptibility Test Results, E. coli [%]
C[C@H]1[C@H](NC(=O)/C(=N\OC(C)(C)C(=O)O)c2csc(N)n2)C(=O)N1S(=O)(=O)O [Aztreonam]	100
C[C@@H](O)[C@H]1C(=O)N2C(C(=O)O)=C(S[C@@H]3CN[C@H](C(=O)N(C)C)C3)[C@H](C)[C@H]12 [Meropenem]	100
Gentamicin	100

Tested on: Leptospira
Assay: Antibiotic susceptibility test (MICROSCAN or disc diffusion) of patient samples positive for Leptospira
Format: cell-based
Details: total isolates 276
From the text: as §1, §2, §3

Compound	Antibiotic Susceptibility Test Results, Leptospira [%]
C[C@H]1[C@H](NC(=O)/C(=N\OC(C)(C)C(=O)O)c2csc(N)n2)C(=O)N1S(=O)(=O)O [Aztreonam]	15
C[C@@H](O)[C@H]1C(=O)N2C(C(=O)O)=C(S[C@@H]3CN[C@H](C(=O)N(C)C)C3)[C@H](C)[C@H]12 [Meropenem]	75
Gentamicin	86

Tested on: Treponema isolate
Assay: Antimicrobial susceptibility test (MICROSCAN plates) of a patient's Treponema isolate
Format: cell-based
Details: Treponema infected patient's isolate; MICROSCAN plates, 35° C., 16-20 hours
Description: For susceptibility testing, the organisms harvested could be assayed using any suitable susceptibility assay (See, Example 7). In some embodiments of the present invention, MICROSCAN antibiotic susceptibility plates were inoculated and incubated. Following incubations, plates were scanned for growth and respective sensitivity reaction. […] For the results to be considered reliable, the no growth of organisms was accepted in the negative control well, while the positive control well had to have sufficient growth to be read. In some embodiments of the present invention, to confirm the presence or absence of growing spirochetes in the growth well, aliquots from the growth well were reinoculated with fresh growth media and after an incubation time (e.g., 7-10 days) the presence of the organisms was confirmed (e.g., by phase contrast microscopy or direct fluorescent antibody staining).
as §1
This example describes an antimicrobial susceptibility test performed for a human patient. The patient had previously been testing using GSI-1 medium (e.g., as described in Example 2) for the presence of any spirochetes. […] This culture sample was then transferred to a microcentrifuge tube, and a pellet for antimicrobial susceptibility testing was prepared as described in Example 6.
as §2

Compound	RESULT (antibiotic susceptibility)
C[C@H]1[C@H](NC(=O)/C(=N\OC(C)(C)C(=O)O)c2csc(N)n2)C(=O)N1S(=O)(=O)O [Aztreonam]	Susceptible
C[C@@H](O)[C@H]1C(=O)N2C(C(=O)O)=C(S[C@@H]3CN[C@H](C(=O)N(C)C)C3)[C@H](C)[C@H]12 [Meropenem]	Resistant
Gentamicin	Resistant

Same assay, conditions: text restating Example 7

Compound	susceptibility profile from a specific human patient
C[C@H]1[C@H](NC(=O)/C(=N\OC(C)(C)C(=O)O)c2csc(N)n2)C(=O)N1S(=O)(=O)O [Aztreonam]	sensitive

Tested on: Y. entero gp.
Assay: Antibiotic susceptibility test (MICROSCAN or disc diffusion), control organism Y. entero gp.
Format: cell-based
Details: total isolates 1

Compound	Antibiotic Susceptibility Test Results, Y. entero gp. [%]
C[C@H]1[C@H](NC(=O)/C(=N\OC(C)(C)C(=O)O)c2csc(N)n2)C(=O)N1S(=O)(=O)O [Aztreonam]	0
C[C@@H](O)[C@H]1C(=O)N2C(C(=O)O)=C(S[C@@H]3CN[C@H](C(=O)N(C)C)C3)[C@H](C)[C@H]12 [Meropenem]	100
Gentamicin	100

Tested on: Tatumella
Assay: Antibiotic susceptibility test (MICROSCAN or disc diffusion), control organism Tatumella
Format: cell-based
Details: total isolates 2
From the text: as §1, §2, §3

Compound	Antibiotic Susceptibility Test Results, Tatumella [%]
C[C@H]1[C@H](NC(=O)/C(=N\OC(C)(C)C(=O)O)c2csc(N)n2)C(=O)N1S(=O)(=O)O [Aztreonam]	0
C[C@@H](O)[C@H]1C(=O)N2C(C(=O)O)=C(S[C@@H]3CN[C@H](C(=O)N(C)C)C3)[C@H](C)[C@H]12 [Meropenem]	100
Gentamicin	100

Tested on: Borrelia and Leptospira
Assay: Susceptibility of several hundred patient samples having Borrelia and Leptospira infections (population effectiveness)
Format: cell-based
Details: not given

Compound	effectiveness in the population
C[C@H]1[C@H](NC(=O)/C(=N\OC(C)(C)C(=O)O)c2csc(N)n2)C(=O)N1S(=O)(=O)O [Aztreonam]	less than 20%

Tested on: Leptospira
Assay: Susceptibility testing of Leptospira isolated from a patient with symptoms of rheumatoid arthritis
Format: cell-based
Details: Leptospira culture from serum of rheumatoid arthritis patient
From the text: as §1
Following the observation of pellet formation, the tube was vortexed and incubated at 35° C. until a MacFarlane standard of between 8 to 12% turbidity was achieved. MICROSCAN antibiotic susceptibility microtiter plates were then inoculated with (e.g., 110 μl of) inoculum and allowed to incubate at 35° C. for 16-20 hours. The microtiter plates were then scanned for growth and respective sensitivity reaction (both the control well and the growth well).
This Example describes the diagnosis and treatment of a human patient with symptoms of rheumatoid arthritis. In particular, serum and urine samples from this patient were initially cultured on GSI-1 (e.g., as described in Example 2), and screened for the presence of spirochetes (e.g., as described in Example 3). […] These cultures were then used to produce pellets for antimicrobial susceptibility testing (e.g., as described in Example 6). The antimicrobial susceptibility tests were then carried out on each sample (e.g., as described in Example 7) with the antimicrobials listed below in Table 5.

Compound	Antibiotic Susceptibility Results, SERUM
C[C@H]1[C@H](NC(=O)/C(=N\OC(C)(C)C(=O)O)c2csc(N)n2)C(=O)N1S(=O)(=O)O [Aztreonam]	Resistant
C[C@@H](O)[C@H]1C(=O)N2C(C(=O)O)=C(S[C@@H]3CN[C@H](C(=O)N(C)C)C3)[C@H](C)[C@H]12 [Meropenem]	Resistant
Gentamicin	Resistant

Same assay, conditions: Leptospira culture from urine of rheumatoid arthritis patient

Compound	Antibiotic Susceptibility Results, URINE
C[C@H]1[C@H](NC(=O)/C(=N\OC(C)(C)C(=O)O)c2csc(N)n2)C(=O)N1S(=O)(=O)O [Aztreonam]	Resistant
C[C@@H](O)[C@H]1C(=O)N2C(C(=O)O)=C(S[C@@H]3CN[C@H](C(=O)N(C)C)C3)[C@H](C)[C@H]12 [Meropenem]	Resistant
Gentamicin	Resistant
